Where two headings read alike, the source gives them in different places. One block for each compound: values may come before it.
How the values were obtained:
[1] = target: HepM GDH1 (Rattus norvegicus, UniProt P10860); assay: GDH reverse (aminating) reaction activity in hepatoma mitochondria (HepM); format: biochemical; conditions: for Ki: saturating ADP, read-out: Ki GTP; for Vmax at given ADP concentration: HepM GDH, pH 7.50, 37°C, 280 μg protein, MWC fit, representative experiment; for EC50: Hill equation
Chain of HepM GDH1 (P10860 54-558): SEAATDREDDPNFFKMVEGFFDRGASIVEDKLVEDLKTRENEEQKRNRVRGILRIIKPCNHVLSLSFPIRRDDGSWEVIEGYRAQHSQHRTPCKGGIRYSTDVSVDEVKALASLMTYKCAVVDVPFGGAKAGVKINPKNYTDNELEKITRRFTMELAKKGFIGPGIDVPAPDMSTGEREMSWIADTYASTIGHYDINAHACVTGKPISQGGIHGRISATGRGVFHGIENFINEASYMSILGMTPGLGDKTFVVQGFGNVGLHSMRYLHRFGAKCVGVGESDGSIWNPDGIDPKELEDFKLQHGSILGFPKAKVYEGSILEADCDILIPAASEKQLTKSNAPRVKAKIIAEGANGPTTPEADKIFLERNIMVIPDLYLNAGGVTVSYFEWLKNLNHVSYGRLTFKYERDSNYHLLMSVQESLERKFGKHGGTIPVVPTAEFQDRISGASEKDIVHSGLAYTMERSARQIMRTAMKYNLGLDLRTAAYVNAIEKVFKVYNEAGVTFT
Procedure: (§1) Tightly coupled mitochondria were isolated from fed-rat liver (RLM) and AS-30D cells (HepM) as described elsewhere ([89], [90]). […] The resulting mitochondrial fractions were resuspended at 30 to 80 mg protein/mL in SHE buffer with 1 mM PMSF, 1 mM EDTA, 5 mM DTT, and 10% glycerol, and stored at −70°C until use for determination of enzyme activity and Western blotting.

[2] = target: RLM GDH1 (Rattus norvegicus, UniProt P10860); assay: GDH reverse (aminating) reaction activity in rat liver mitochondria (RLM); format: biochemical; conditions: for Ki: saturating ADP, read-out: Ki GTP; for Vmax at given ADP concentration: RLM GDH, pH 7.50, 37°C, 90 μg protein, MWC fit, representative experiment; for EC50: Hill equation
Chain of RLM GDH1 (P10860 54-558): as above
Procedure: as §1

[3] = system: mammalian liver and brain GDHs; parameters: method as in PMID 3701332, PMID 7588764, PMID 7190024, PMID 4052048, PMID 1366782; conditions: cited from earlier work
[4] = system: tumors; parameters: method as in PMID 10071293; conditions: clinical trials; cited from earlier work
[5] = system: prostate cancer, renal cancer, and leukemia cell lines; parameters: method as in PMID 1372534, PMID 12820434; conditions: cited from earlier work
[6] = target: GDH in HepM and RLM (Rattus norvegicus, UniProt P10860); assay: GDH reverse reaction kinetics, summary statements for HepM and RLM; format: biochemical; conditions: summary of Table 2
Chain of GDH in HepM and RLM (P10860 54-558): as above
Procedure: (§2) The decrease in the absorbance at 340 nm was followed for several minutes (~10 min) to allow for full development of the pronounced enzyme hysteretic behavior, although the initial signal decrease (1–3 min) was taken to calculate the GDH rates. The protein concentration ranges used for each mitochondrial type were well within the linearity range of enzyme activity. To calculate the kinetic parameters, the experimental data were fitted by non-linear regression analysis to the Hill or MWC equation, using the Microcal Origin 5.0 software (OriginLab, Northampton, MA, USA).

[7] = target: GDH1 (Rattus norvegicus, UniProt P10860); assay: Effect of Mg2+ and spermidine on GDH1 activity; format: biochemical
Chain of GDH1 (P10860 54-558): as above
Procedure: as §2

[8] = system: recombinant human GDH isoforms (GDH1 and GDH2), bovine liver GDH, Ox brain GDH, dogfish liver GDH, rat brain GDH, and bovine brain GDH isoforms; parameters: method as in PMID 4381532, PMID 7588764, PMID 17924438, PMID 23420347, PMID 7190024; conditions: pH range of 7.4–8.7, cited from earlier work

- Ki ([1]; HepM, pH 7.2, MWC equation): 28 ± 27 µM
- IC50 ([1]; HepM, pH 7.2, reverse reaction): 114 ± 29 µM
- Ki ([1]; HepM, pH 7.5, MWC equation): 64 ± 59 µM
- Ki ([2]; RLM, pH 7.2, MWC equation): 60 ± 10 µM
- IC50 ([2]; RLM, pH 7.2, reverse reaction): 139 ± 21 µM
- Ki ([2]; RLM, pH 7.5, MWC equation): 31.7 ± 7 µM
- IC50 ([2]; RLM, pH 7.5, reverse reaction): 244 µM
Structure (SMILES): Nc1nc2c(ncn2[C@@H]2O[C@H](COP(=O)(O)OP(=O)(O)OP(=O)(O)O)[C@@H](O)[C@H]2O)c(=O)[nH]1 [GTP]

- Vmax at given ADP concentration ([1]; 0.13 mM ADP): 0.037 ± 0.009 ΔAbs/min
- Vmax at given ADP concentration ([1]; 0.5 mM ADP): 0.153 ± 0.008 ΔAbs/min
- Vmax at given ADP concentration ([1]; 1.5 mM ADP): 0.193 ± 0.011 ΔAbs/min
- Vmax at given ADP concentration ([1]; […] ADP): 0.099 ± 0.010 ΔAbs/min
- nH (Hill coefficient) for ADP ([1]; HepM, pH 7.2, Hill equation): 2.77 ± 0.7
- Ka ADP (activation constant) ([1]; HepM, pH 7.2, MWC equation): 0.42 ± 0.26 (3) mM
- EC50 ([1]; HepM, pH 7.2, allosteric activator, read-out: K0.5 ADP): 564 ± 167 µM
- nH (Hill coefficient) for ADP ([1]; HepM, pH 7.5, Hill equation): 2.6 ± 0.4
- Ka ADP (activation constant) ([1]; HepM, pH 7.5, MWC equation): 0.44 ± 0.37 (3) mM
- EC50 ([1]; HepM, pH 7.5, allosteric activator, read-out: K0.5 ADP): 281 ± 134 µM
- Vmax at given ADP concentration ([2]; 0.25 mM ADP): 0.131 ± 0.113 ΔAbs/min
- Vmax at given ADP concentration ([2]; 0.75 mM ADP): 0.295 ± 0.022 ΔAbs/min
- Vmax at given ADP concentration ([2]; 2.1 mM ADP): 0.367 ± 0.024 ΔAbs/min
- nH (Hill coefficient) for ADP ([2]; RLM, pH 7.2, Hill equation): 2.4 ± 0.3
- Ka ADP (activation constant) ([2]; RLM, pH 7.2, MWC equation): 0.51 ± 0.14 (5) mM
- EC50 ([2]; RLM, pH 7.2, allosteric activator, read-out: K0.5 ADP): 567 ± 125 µM
- nH (Hill coefficient) for ADP ([2]; RLM, pH 7.5, Hill equation): 2.34
- Ka ADP (activation constant) ([2]; RLM, pH 7.5, MWC equation): 0.11 ± 0.14 (4) mM
- EC50 ([2]; RLM, pH 7.5, allosteric activator, read-out: K0.5 ADP): 285 µM
- Hill coefficient (nH) when varying ADP [6]: 2.3–2.8
Structure (SMILES): Nc1ncnc2c1ncn2[C@@H]1O[C@H](COP(=O)(O)OP(=O)(O)O)[C@@H](O)[C@H]1O [ADP]

- Effect on GDH1 activity ([7]; 0- to 0.4-mM added MgCl2): not affected
- Inhibition of GDH1 activity ([7]; 1 mM Mg^2+): < 10%
- Inhibition of GDH1 activity ([7]; 2 mM Mg^2+): ~ 20%
Structure (SMILES): [Cl-].[Cl-].[Mg+2] [Mg^2+, MgCl2]

- Km ([1]; read-out: Km NADPH, HepM, pH 7.2, Michaelis–Menten): 46 ± 14 µM
- Km ([1]; read-out: Km NADPH, HepM, pH 7.5, Michaelis–Menten): 109 ± 4 µM
- Km ([2]; read-out: Km NADPH, RLM, pH 7.5, Michaelis–Menten): 133 ± 28 µM
Structure (SMILES): NC(=O)C1=CN([C@@H]2O[C@H](COP(=O)(O)OP(=O)(O)OC[C@H]3O[C@@H](n4cnc5c(N)ncnc54)[C@H](OP(=O)(O)O)[C@@H]3O)[C@@H](O)[C@H]2O)C=CC1 [NADPH]
- Km ([8]; read-out: Km NADPH): 20 to 120 µM
- Km [3]: 22 to 120 µM

- Effect on GDH activity ([7]; spermidine 0–5 mM, data not shown): innocuous
- inhibition at 20000 µM ([7]; spermidine 20 mM, data not shown, read-out: Inhibition of GDH activity): 20%
Structure (SMILES): NCCCCNCCCN [Spermidine]

- nH (Hill coefficient) for Leu ([1]; HepM, pH 7.2, Hill equation): 2.8
- EC50 ([1]; HepM, pH 7.2, activator, read-out: K0.5 Leu): 2600 µM
- nH (Hill coefficient) for Leu ([2]; RLM, pH 7.2, Hill equation): 2.75
- EC50 ([2]; RLM, pH 7.2, activator, read-out: K0.5 Leu): 3900 µM
Structure (SMILES): CC(C)C[C@H](N)C(=O)O [Leu, L-leucine]

Continued, compound first:

Structure (SMILES): NC(=O)c1ccc[n+]([C@@H]2O[C@H](COP(=O)([O-])OP(=O)(O)OC[C@H]3O[C@@H](n4cnc5c(N)ncnc54)[C@H](O)[C@@H]3O)[C@@H](O)[C@H]2O)c1 [NAD^+]
- Km [3]: 170 to 830 µM

Structure (SMILES): O=C(O)Cc1ccccc1 [phenylacetate]
- Antitumor activity [4]: negligible antitumor activity
- Growth of cell lines [5]: arrests growth

Structure (SMILES): NC(=O)c1ccc[n+]([C@@H]2O[C@H](COP(=O)([O-])OP(=O)(O)OC[C@H]3O[C@@H](n4cnc5c(N)ncnc54)[C@H](OP(=O)(O)O)[C@@H]3O)[C@@H](O)[C@H]2O)c1 [NADP^+]
- Km [3]: 160 to 1220 µM

Structure (SMILES): O=C(O)CCC(=O)C(=O)O [2-OG, 2-oxoglutarate]
- Km ([1]; HepM, pH 7.2, Michaelis–Menten, read-out: Km 2-OG): 442 ± 160 µM
- Km ([1]; HepM, pH 7.5, Michaelis–Menten, read-out: Km 2-OG): 733 ± 325 µM
- Km ([2]; RLM, pH 7.2, Michaelis–Menten, read-out: Km 2-OG): 371 ± 232 µM
- Km ([2]; RLM, pH 7.5, Michaelis–Menten, read-out: Km 2-OG): 396 ± 75 µM
- Km ([8]; read-out: Km 2OG): 470 to 4500 µM

Structure (SMILES): NC(=O)C1=CN([C@@H]2O[C@H](COP(=O)(O)OP(=O)(O)OC[C@H]3O[C@@H](n4cnc5c(N)ncnc54)[C@H](O)[C@@H]3O)[C@@H](O)[C@H]2O)C=CC1 [NADH]
- Km [3]: 28 to 120 µM

Structure (SMILES): O=C(O)CCCc1ccccc1 [Phenylbutyrate, phenylbutyrate]
- Growth of cell lines [5]: arrests growth
